# Test results as given in US20150050368A1, “METHOD FOR PRODUCING A PLANT EXTRACT FROM DESMODIUM AND ITS EXTRACT THEREOF” (priority 2012, published 2015).
# Columns and labels:
# [1] = test system: liver injury induced by galactosamine; experiment: preventive effect of Desmodium adscendens decoction against galactosamine-induced liver injury in rats; assay type: in vivo, Sprague Dawley rats; conditions: 48 h after D-galactosamine 650 mg/kg IP; oral gavage; Desmodium equivalent to 20 or 5 mg/kg D-pinitol, D-pinitol 20 mg/kg, silymarin 20 mg/kg
# Source text: As far as the in vivo evaluation of the hepato-protective effect of Desmodium adscendens decoction is concerned, D-pinitol has a hepato-protective effect. One of the constituents of Desmodium adscendens is D-pinitol. […] In this in vivo experiment the preventive effect of a decoction of Desmodium adscendens against liver injury induced by galactosamine was investigated in rats. Silymarin was used as the reference agent. Silymarin is a mixture of various flavanolignans from the fruits of the milk thistle plant, Silybum marianum. The principal components are silybin, […]. In addition, small quantities of isosilybin are present in milk thistle. […] The liver injury and the possible hepato-protective effect were evaluated by determining the following parameters in serum: ALT (=GPT), AST (=GOT), ALP. […] After administration of the hepatotoxic agent D-galactosamine, both after 24 h and after 48 h, liver injury was observed through a marked increase in the three parameters determined (control vs. hepatotox).
# [2] = test system: ethanol-induced liver injury; experiment: protective effect against ethanol-induced liver injury in rats; assay type: in vivo, male Wistar rats
# Source text: The purpose of the experiment is to evaluate the hepatoprotective effects of decoct of Desmodium adscendens against ethanol-induced liver injury, standardized to its primary ingredient: D-pinitol. Materials and Methods: 66 male Wistar rats of 200-225 g (Charles River, Brussels, Belgium) were randomly divided into 6 groups: the negative control group (CON: no hepatotoxic agent, no treatment: 8 rats), the hepatotoxic group (HEP: induction of hepatotoxicity, no treatment: 20 rats), the Desmodium I group (induction of hepatotoxicity, treatment with Desmodium adscendens decoct, equivalent to 2 mg/kg of D-pinitol: 10 rats), the group II Desmodium (induction of hepatotoxicity, treatment with Desmodium adscendens decoct, equivalent to 10 mg/kg of D-pinitol: 10 rats), the D-pinitol group (PIN: induction of hepatotoxicity, treatment with 10 mg/kg of D-pinitol: 10 rats), the positive control group (SIL: induction of hepatotoxicity, treatment with 20 mg/kg of silymarin: 8 rats). 2 days prior to ethanol administration, an appropriate amount of lyophilized decoct, pinitol silymarin or suspended in water and administered by gavage (or vehicle for the control group). Hepatotoxicity was induced by daily oral gavage with a 55% ethanol solution (except for the negative control group). […] Ethanol was administered for a period of 7 weeks. Was administered daily, depending on the group, treated with the specific decoct, pinitol or silymarin (oral gavage) to the end of the experiment. For ethanol administration (default values), and at weeks 3, 4, 5 and 6, blood samples (1.5 ml) were taken from the lateral tail vein (Multi Fat 600, Sarstedt). This experiment was approved by the Ethics Committee for Animal Experiments of the University of Antwerpen (17-01-2011, 2010-37).
# A schematic overview of the different treatment groups is given below next. Concentrations of enzyme aspartate transaminase (AST, GOT) and alanine transaminase (ALT, GPT) were in the serum samples from the test animals as determined by routine laboratory techniques (Senior, 2009). Elevated levels can be considered as an indication of liver cell destruction or a change in membrane permeability.
# Statistics to analyze the difference between CON and HEP for AST and ALT, and between HEP and DES 1, DES 2, PIN and SIL for AST and ALT, was a mixed model analyze performed. The log-rank test was performed for statistical analysis of survival data.
# 3T3-L1 adipocytes = conditions: cited from earlier work
# L6 rat muscle cells = conditions: cited from earlier work
# foam cells = conditions: cited from earlier work
# [3] = test system: LPS-induced dendritic bone marrow cells; conditions: cited from earlier work
# neutrophils = conditions: cited from earlier work
# [4] = test system: streptozotocin-induced diabetic mice; conditions: mouse, in vivo; cited from earlier work
# [5] = test system: severely insulin-resistant mice; conditions: mouse, in vivo; cited from earlier work
# [6] = test system: streptozotocin-induced diabetic rats; conditions: rat, in vivo; cited from earlier work
# [7] = test system: liver injury with galactosamine; conditions: after induction of liver injury with galactosamine; cited from earlier work
# [8] = test system: carrageenan-induced oedema of the paw; cotton pellet granuloma; conditions: cited from earlier work
# OVA-induced asthma = conditions: mouse, in vivo; cited from earlier work
# [9] = test system: patients with type 2 diabetes; conditions: cited from earlier work
# [10] = test system: insulin-resistant patients; conditions: 20 mg/kg/day for 4 weeks; cited from earlier work
# [11] = test system: older, non-diabetic patients; conditions: intake for 6 weeks; cited from earlier work
# [12] = in vivo; cited from earlier work
# [13] = after 4 weeks of ethanol, daily oral gavage, DES1 eq. 2, DES2 eq. 10 mg/kg D-pinitol, PIN 10 mg/kg, SIL 20 mg/kg
# [14] = after 5 weeks of ethanol, daily oral gavage, DES1 eq. 2, DES2 eq. 10 mg/kg D-pinitol, PIN 10 mg/kg, SIL 20 mg/kg
# [15] = after 6 weeks of ethanol, daily oral gavage, DES1 eq. 2, DES2 eq. 10 mg/kg D-pinitol, PIN 10 mg/kg, SIL 20 mg/kg
# [16] = 13 weeks of treatment with 2×60 mg per day
structure (smiles),measurement,setting,value
"CO[C@H]1[C@H](O)[C@@H](O)[C@@H](O)[C@H](O)[C@@H]1O [D-pinitol, 3-O-methyl-chiro-inositol]",ALT (GPT) in serum compared with the hepatotoxic group,[1],decreased significantly
same,AST (GOT) in serum compared with the hepatotoxic group,[1],decreased significantly
same,survival of test animals,"[2]; W0, DES1 eq. 2, DES2 eq. 10 mg/kg D-pinitol, PIN 10 mg/kg, SIL 20 mg/kg",100%
same,survival of test animals,"[2]; W1 of ethanol, DES1 eq. 2, DES2 eq. 10 mg/kg D-pinitol, PIN 10 mg/kg, SIL 20 mg/kg",100%
same,survival of test animals,"[2]; W2 of ethanol, DES1 eq. 2, DES2 eq. 10 mg/kg D-pinitol, PIN 10 mg/kg, SIL 20 mg/kg",70%
same,survival of test animals,"[2]; W3 of ethanol, DES1 eq. 2, DES2 eq. 10 mg/kg D-pinitol, PIN 10 mg/kg, SIL 20 mg/kg",60%
same,survival of test animals,"[2]; W4 of ethanol, DES1 eq. 2, DES2 eq. 10 mg/kg D-pinitol, PIN 10 mg/kg, SIL 20 mg/kg",60%
same,survival of test animals,"[2]; W5 of ethanol, DES1 eq. 2, DES2 eq. 10 mg/kg D-pinitol, PIN 10 mg/kg, SIL 20 mg/kg",50%
same,survival of test animals,"[2]; W6 of ethanol, DES1 eq. 2, DES2 eq. 10 mg/kg D-pinitol, PIN 10 mg/kg, SIL 20 mg/kg",40%
same,survival of test animals,"[2]; W6 of ethanol, DES1 eq. 2, DES2 eq. 10 mg/kg D-pinitol, PIN 10 mg/kg, SIL 20 mg/kg, listed as PIN",40%
same,Serum ALT ALT_4 Average,[2]; [13],75.9
same,Serum AST AST_4 Average,[2]; [13],89.3 U/I
same,Serum ALT ALT_5 Mean,[2]; [14],61.6
same,Serum AST AST_5 Average,[2]; [14],78.3 U/I
same,Serum ALT ALT_6 Mean,[2]; [15],65.6
same,Serum AST AST_6 Mean,[2]; [15],86.3 U/I
same,statistical difference in survival vs the hepatotoxic group,"[2]; log-rank test, 6 weeks, DES 1 eq. 2, DES 2 eq. 10 mg/kg pinitol, pinitol 10 mg/kg, silymarin 20 mg/kg",No statistically significant difference
same,expression of adiponectin mRNA,3T3-L1 adipocytes; 1 mM,increases expression of adiponectin mRNA
same,"mRNA expression of GLUT4, IRS, PPARγ and C/EBP",3T3-L1 adipocytes; 0.5 and 1 mM,increases the mRNA expression
same,basal uptake of 2-deoxyglucose,L6 rat muscle cells; L6 muscle cells,increases the basal uptake of 2-deoxyglucose
same,translocation of GLUT4 to the cell membrane,L6 rat muscle cells; L6 rat muscle cells,induces the translocation of GLUT4 to the cell membrane
same,formation of foam cells,foam cells,moderately decreases
same,production of IL-12 and pro-inflammatory cytokines,[3]; LPS-induced,reduces the production
same,"expression of MHC-I, MHC-II, CD80 and CD86",[3]; in vitro and in vivo,decreases the expression
same,TNF-alpha expression,neutrophils,inhibits TNF-alpha expression
same,hypoglycaemic effect,[4],acute and chronic hypoglycaemic effect
same,efficacy,[5],not effective
same,"AST, ALT and alkaline phosphatase values in the liver",[6],normalises
same,"blood glucose, haemoglobin and insulin",[6],lowers blood glucose haemoglobin and increases insulin
same,effect on lipids,[6],lipid-lowering effect
same,AST and ALT liver values and TNF-α values,[7],normalises
same,lipid peroxidation,[7],reduces lipid peroxidation
same,effect against acute inflammation,[8]; carrageenan-induced oedema of the paw,anti-inflammatory properties
same,effect against subacute inflammation,[8]; cotton pellet granuloma,anti-inflammatory properties
same,hyperreactivity and inflammation observed in asthma,OVA-induced asthma,reduces
same,number of inflammatory cells in bronchoalveolar lavage fluid,OVA-induced asthma,decreases
same,HDL cholesterol values,[9]; [16],increased
same,"total cholesterol, LDL/HDL ratio and systolic and diastolic blood pressures",[9]; [16],decreased
same,"fasting glucose values, HbA1c values and insulin","[9]; human, in vivo",favourable effect
same,fasting and postprandial glucose values and HbA1c values,"[9]; uncontrolled type 2 diabetes, 12 weeks, 20 mg/kg/day, in addition to the usual therapy",improves
same,"levels of adiponectin, leptin, C-reactive protein (CRP) and free fatty acids","[9]; uncontrolled type 2 diabetes, 12 weeks, 20 mg/kg/day",does not significantly change
same,basal and insulin-mediated glucose or lipid metabolism,[10],no effect
same,insulin-mediated glucose metabolism,[11],no effect
same,metabolism in humans,[12],metabolised partly to D-chiro-inositol
